Data from patent US6727274B2, “Arylsulphonyl substituted-tetrahydro- and hexahydro-carbazoles” (Pharmacia & Upjohn Company, priority 2001, dated 2004).

melting point: > 275 °C
Compound: CN[C@@H]1CCc2c(c3cc(S(=O)(=O)c4ccccc4)ccc3n2C)C1.Cl
